Source: patent publication US8324280B2, “Treatment of prostate cancer with DDC inhibitor” (The University of British Columbia, priority 2008, dated 2012)

Tests used:
[1] = system: LNCaP-DDC xenografts; test: LNCaP-DDC (DDC overexpressing) tumour xenografts with carbidopa treatment; assay type: in vivo, mice; settings: 25 mg/kg intraperitoneally daily, Dox
Procedure: LNCaP-DDC and LNCaP-Vector control cells were inoculated subcutaneously (s.c.), after resuspension in 0.1 mL of Matrigel (Becton Dickinson Labware), into two flank regions (2.5×10^6 cells/site) of 6 to 8 week old male athymic nude mice (Harlan Sprague Dawley, Inc.) via a 27-gauge needle under halothane anesthesia. Tumour volume and serum PSA measurements (blood collected from the tail vein) were performed once per week after tumours became palpable. PSA levels were measured by ELISA (ClinPro International) and tumour size was calculated by the formula; length×width×depth×0.5236. Once serum PSA values reached 75-100 ng/mL, mice in both the LNCaP-DDC and LNCaP-Vector control groups were given Dox-treated water (200 μg/mL) and treated with or without carbidopa. Carbidopa was purchased from Sigma and dissolved in DMSO. The solution was diluted in PBS to a final concentration of 10% DMSO and sterilized through a 0.2 μm filter. Carbidopa solution was injected intraperitoneally into half of the mice (25 mg per kg of body weight) for the +carbidopa groups, while the remaining mice received vehicle injections consisting of 10% DMSO in PBS (−carbidopa groups). Injections were carried out daily for the duration of the experiment. […] PSA velocity and tumour growth rate differences were determined by one-way ANOVA and Tukey's multiple comparison test. […]

[2] = system: C4-2 xenografts; test: Androgen-independent C4-2 tumour xenografts in pre-castrated mice; assay type: in vivo
Procedure: Parental C4-2 cells were inoculated subcutaneously (s.c.), after resuspension in 0.1 mL of Matrigel (Becton Dickinson Labware), into two flank regions (2.5×10^6 cells/site) of 6 to 8 week old castrated (to ensure tumors will be androgen-independent) male athymic nude mice (Harlan Sprague Dawley, Inc.) via a 27-gauge needle under halothane anesthesia. Tumour volume and serum PSA measurements (blood collected from the tail vein) were performed once per week after tumours became palpable. PSA levels were measured by ELISA (ClinPro International) and tumour size was calculated by the formula; length×width×depth×0.5236. Once serum PSA values reached 75-100 ng/mL, mice were treated with or without carbidopa. Carbidopa was purchased from Sigma and dissolved in DMSO. The solution was diluted in PBS to a final concentration of 10% DMSO and sterilized through a 0.2 μm filter. Carbidopa solution was injected intraperitoneally into half of the mice (25 mg per kg of body weight) for the +carbidopa groups, while the remaining mice received vehicle injections consisting of 10% DMSO in PBS (−carbidopa groups). Injections were carried out daily for the duration of the experiment. Each animal group contained 2-3 mice. PSA measurements were used to calculate PSA velocity and volume measurements were used to determine the tumour growth rate for all groups with linear regression slope analysis (see Statistical Analysis below). PSA velocity was defined as the increase in PSA level (normalized to pre-treatment value set at 100%) divided by number of days that PSA was reliably measurable (21 days). […] All animal procedures were performed according to the guidelines of the Canadian Council of Animal Care and with appropriate institutional certification. C4-2 xenograft tumour volume and PSA values (−/+carbidopa) were used for linear regression slope analysis to determine PSA velocity and tumour growth rate with GraphPad Prism 4, version 4.03. PSA velocity and tumour growth rate differences were determined using the Student's t-test.

[3] = system: parental LNCaP xenografts; test: Parental LNCaP tumour xenografts in castrated mice, progression to androgen-independence; assay type: in vivo
Procedure: Parental LNCaP cells were inoculated subcutaneously (s.c.), after resuspension in 0.1 mL of Matrigel (Becton Dickinson Labware), into two flank regions (2.5×10^6 cells/site) of 6 to 8 week old male athymic nude mice (Harlan Sprague Dawley, Inc.) via a 27-gauge needle under halothane anesthesia. Tumour volume and serum PSA measurements (blood collected from the tail vein) were performed once per week after tumours became palpable. PSA levels were measured by ELISA (ClinPro International) and tumour size was calculated by the formula; length×width×depth×0.5236. Once serum PSA values reached 75-100 ng/mL, mice were castrated and treated with or without carbidopa. Carbidopa was purchased from Sigma and dissolved in DMSO. The solution was diluted in PBS to a final concentration of 10% DMSO and sterilized through a 0.2 μm filter. Carbidopa solution was injected intraperitoneally into half of the mice (25 mg per kg of body weight) for the +carbidopa group, while the remaining mice received vehicle injections consisting of 10% DMSO in PBS (−carbidopa group). Injections were carried out daily for the duration of the experiment. Each animal group contained 5-6 mice. Serum PSA and tumour volume values were measured with progression to androgen-independence and normalized to pretreatment values (set at 100%) to obtain the mean percentage PSA and mean tumour volume of pre-treatment (±SEM). All animal procedures were performed according to the guidelines of the Canadian Council of Animal Care and with appropriate institutional certification. Statistical analysis was performed using the Student's t-test (two-sample equal variance) with JMPIN statistical software (Version 4.0.2, SAS Institute Inc.).

[4] = system: neuroendocrine cancer cell lines; settings: including a carcinoid cancer and a small cell lung cancer cell line; cited from earlier work

C[C@@](Cc1ccc(O)c(O)c1)(NN)C(=O)O [carbidopa, α-Methyl-dopahydrazine]
PSA velocity (rate of PSA production) ([1]; over 35 days, PSA normalized to pre-treatment 100%): 14.7±0.6
tumour growth rate ([1]; over 49 days, volume normalized to pre-treatment 100%): 22.5±3
reduction of tumour growth rate versus control ([2]; 21 days): 2.1 fold
decrease in PSA velocity versus control non-treated ([2]; over 21 days): 4.1 fold
tumour growth rate ([2]; pre-castrated mice, 25 mg/kg i.p. daily, 21 days): 5.7±0.6
PSA velocity (rate of PSA production) ([2]; pre-castrated mice, 25 mg/kg i.p. daily, over 21 days): 4.7±2
decrease in PSA level with treatment versus control group ([3]; 11 weeks): 4.3 fold
decrease in tumour growth versus control group ([3]; 11 weeks): 5.4 fold
tumour volume, of pre-treatment ([3]; castrated mice, 25 mg/kg i.p. daily, 11 weeks): 478±97%
serum PSA level, of pre-treatment ([3]; castrated mice, 25 mg/kg i.p. daily, 11 weeks (termination)): 167±36%
serum PSA level, of pre-treatment ([3]; castrated mice, 25 mg/kg i.p. daily, week 1): 38±5%
serum PSA level, of pre-treatment ([3]; castrated mice, 25 mg/kg i.p. daily, week 10): 148±34%
increase of tumour volume from pre-treatment volume ([3]; over 11 weeks): about 5 fold
lethality to cancer cell lines [4]: lethal to several but not all tested neuroendocrine cancer cell lines
